On the set-up of data set [1]: method as in PMID 24313264. The note with it: cited from earlier work.
Data set [2] deals with caco-2 cells. Briefly: MTT colorimetric assay of caco-2 cell viability. The note with it: 24 h; for effect on cell growth (MTT): concentration less than 40 μg/mL; for effect on cell viability (MTT): concentration over 40 μg/mL. In kind it is cell-based, human. Here is the method:
The effects of CAPs on caco-2 cell viability were checked by 3-(4,5-dimethyl-2-thiazolyl)-2,5-diphenyl-2-H-tetrazolium bromide (MTT) colorimetric assay, which is adapted to analyze cell proliferation and drug cytotoxicity. […] In brief, caco-2 cells were seeded at 4 × 10^3 cells/well into 96-well culture plates and were incubated at 37 °C for 24 h before the assay. The cells were treated with different concentrations (0, 10, 20, 40, 80, 120, 160 and 240 μg/mL) of CAPs. After 24 h of incubation, 20 µL of MTT (5 mg/mL) was added to each well and the cells were incubated for another 4 h. After removing the culture medium, 100 µL of dimethyl sulfoxide was added to dissolve the contents in the plate. Then, the absorbance was measured at 570 and 630 nm (reference wavelength) using a microplate reader (Multiskan MK3; Thermo Fisher Scientific, Waltham, MA, USA).
Figure S2: Capilliposides (CAPs) inhibited the proliferation of caco-2 cells. Caco-2 cells were treated for 24 h with different concentrations (0, 10, 20, 40, 80, 120, 160 and 240 ug/mL) of CAPs. p < 0.05(*), comparison with the group of 0 ug/mL. All the results are expressed as mean ± S.D. (n=3).
Background: Formazan colour is commonly taken as a measure of viable cells.

Data set [3] deals with intestinal segment (duodenum, jejunum, ileum). Type of data set: in vivo. As to conditions: rat; for change of Peff and Ka values at higher drug concentration (80 μg/mL) / change of Peff and Ka values between 20 and 50 μg/mL / increase of Peff with indomethacin / increase of intestinal transport with verapamil / order of Peff and Ka values in three intestinal segments: in vivo. Here is the method:
Male Sprague-Dawley (SD) rats (280 ± 30 g) were supplied by the Laboratory Animal Center, Zhejiang Chinese Medical University (Zhejiang, China). All animals were fasted overnight (12-18 h) with free access to water before experiments. All experiments were performed in accordance with the guidelines for the care and use of animals as established by the Laboratory Animal Centre, Zhejiang Chinese Medical University (Zhejiang, China) (approval number: ACXK20150016). The perfusion experiment was performed as previously reported. In brief, rats were fasted overnight but permitted to drink water freely the day before the experiments. After being anesthetized, the rats were placed on the surface of a thermostatic device and maintained at 37 °C. An incision of approximately 3 cm was made along the midline of the abdominal cavity to expose the contents of the abdomen. […] Then the incision was made at both sides of the segment. The intestinal contents were rinsed with saline preheated at 37 °C, drained with air, and connected to the perfusion system with the catheter. One-hundred […] of pre-prepared perfusate was taken and preheated at 37 °C. The perfusion was started at a circulation speed of 1.0 mL/min for 10 min. […] Samples were collected in glass tubes (2 mL/per) at 10-min intervals for 90 min. […] The rest of the samples were stored at -20 °C for further studies.

Data set [4] is described as follows: Stability in Krebsringer buffer (K-R buffer) at different pH values. In kind it is physicochemical. The note with it: pH 5.0, pH 6.55, pH 7.43. From the text: The SPIP model was used to further explore the intestinal permeability features of CAPB and CAPC in rats. Firstly, we determined the stability of CAPB and CAPC in the Krebsringer buffer (K-R buffer) across different pH values. […] In other words, CAPB and CAPC were stable in a weakly acidic environment. Because the pH of intestinal juice was close to 6.55, we used a K-R buffer at pH 6.55 as the perfusion solution.
Figure 4 The characterization of the intestinal permeability of capilliposide B (CAPB) and capilliposide C (CAPC) in single-pass intestinal perfusion (SPIP) model. The stability of CAPB and CAPC were measured at different pH values (pH 5, pH 6.55, and pH 7.34, respectively) (A). The absorption rate constants (ka, s^−1) values (B) and effective permeability (Peff, cm/s) values (C) for CAPB and CAPC at different initial drug concentrations (20 μg/mL, 50 μg/mL, and 80 μg/mL, respectively). p < 0.05 (*) compared with the group at 80 μg/mL. The Ka values (D) and Peff values (E) of CAPB and CAPC obtained from the duodenum, jejunum, and ileum in SPIP models. p < 0.05 (*) compared with the duodenum. All the results are expressed as mean ± S.D. (n = 3).

For data set [5], the system named is caco-2 cell monolayer. Briefly: Transport (permeability) across caco-2 cell monolayer, bidirectional, with and without inhibitors. Type of data set: in vitro ADME, human. Here is the method: Caco-2 cells were routinely cultured in high glucose Dulbecco’s modified Eagle’s medium (DMEM) containing 10% fetal bovine serum (FBS), 1% nonessential amino acids, and 1% penicillin/streptomycin. Cells were kept at 37 °C in a 90% relative humidity atmosphere containing 5% CO2. Cells were seeded onto transwells purchased from Corning Costar Co. (New York, NY, USA) on 12-well plates for transport studies and uptake studies at 5 × 10^4 cells per insert. Cells were grown for 20 days. […] DMEM was removed and the monolayer was washed with Hank’s Balanced Salt Solution (HBSS). The blank HBSS was replaced by 0.4 mL of HBSS containing 40, 20 and 10 μg/mL of drug on the apical (AP) side and 2.1 mL of HBSS on the basolateral (BL) side. In the AP-BL direction studies, 0.4 mL of HBSS containing 40 μg/mL drug and P-gp inhibitor (53 μg/mL verapamil); MRP2 inhibitor (17.9 μg/mL indomethacin); or the co-inhibitor of P-gp, MRP2 and CYP3A4 (10 μg/mL cyclosporin A) were added to the AP side; 2.1 mL of HBSS was added to the BL side. In the BL-AP direction studies, 0.4 mL of HBSS containing 40 μg/mL drug and different inhibitors were added to the BL side, and 2.1 mL of HBSS was added to AP side. Samples (0.4 mL) were taken from the BL or AP side after 45, 60 and 90 min incubation at 37 °C. An additional 0.4 mL of HBSS was added at the same time. The concentrations of samples were analyzed by LC-MS. […] Linear regression was carried out to obtain the steady-state appearance rate of the drug on the receiver side.
A general note: Caco-2 cells form a polarised layer with tight junctions and transporters.

Regarding `CC1(C)C[C@H](O[C@@H]2O[C@H](CO)[C@@H](O)[C@H](O)[C@H]2O)[C@@]23[C@H](O)C[C@]4(C)[C@@](CC[C@@H]5[C@@]6(C)CC[C@H](O[C@@H]7OC[C@H](O[C@@H]8O[C@H](CO)[C@@H](O)[C@H](O)[C@H]8O[C@@H]8OC[C@@H](O)[C@H](O)[C@H]8O)[C@H](O)[C@H]7O[C@@H]7O[C@H](CO)[C@@H](O)[C@H](O)[C@H]7O)C(C)(C)[C@@H]6CC[C@]54C)(O[C@@H]2O)[C@@H]3C1` [CAPC, capilliposide C], in data set [1], the “bioavailability and tissue exposure after oral administration” value was “poor bioavailability and low exposure in tissues”. In addition, in data set [2], the “effect on cell growth (MTT)” value is reported as “did not inhibit cell growth significantly” and the “effect on cell viability (MTT)” value was “significantly decreased cell viability”. Besides, in data set [3], the “change of permeability with cyclosporin A” value is “increased slightly”; the “change of permeability with ketoconazole vs alone” value is on record as “minimal alteration of permeability”; the “effective permeability (Peff)” value is “less than 0.2 × 10^−4 cm/s”; the “change of Peff and Ka values at higher drug concentration (80 μg/mL)” value is “significant decrease”. In addition, in data set [3], the “change of Peff and Ka values between 20 and 50 μg/mL” value is listed as “slight increase”; the “increase of Peff with indomethacin” value is given as 2 fold; the “increase of intestinal transport with verapamil” value is recorded as 1.5 fold; the “order of Peff and Ka values in three intestinal segments” value is recorded as “followed the same pattern as CAPB”. The “stability in K-R buffer across pH values” in data set [4] is “more stable at pH 5.0 and pH 6.55 than pH 7.43”. Moreover, in data set [5], the Papp entry is “less than 2 × 10^−6 cm/s”; the “Papp (BA)/Papp (AB) (efflux ratio, ER)” value is 1.0-1.5; the “Papp at high and medium vs lower concentration” value is “significant increase in permeability”; the “Papp over incubation time” value is listed as “upward trend over time”. In addition, the “change of permeability in the presence of cyclosporin A” value in data set [5] is “only a small increase”.

For the compound `CCCCCC(=O)O[C@H]1CC(C)(C)C[C@@H]2[C@@]13[C@H](O)C[C@]1(C)[C@@]2(CC[C@@H]2[C@@]4(C)CC[C@H](O[C@@H]5OC[C@H](O[C@@H]6O[C@H](CO)[C@@H](O)[C@H](O)[C@H]6O[C@@H]6OC[C@@H](O)[C@H](O)[C@H]6O)[C@H](O)[C@H]5O[C@@H]5O[C@H](CO)[C@@H](O)[C@H](O)[C@H]5O)C(C)(C)[C@@H]4CC[C@]21C)O[C@H]3O` [CAPB, capilliposide B], the “bioavailability and tissue exposure after oral administration” value in data set [1] is “poor bioavailability and low exposure in tissues”. In addition, in data set [2], the “effect on cell growth (MTT)” value is listed as “did not inhibit cell growth significantly” and the “effect on cell viability (MTT)” value is listed as “significantly decreased cell viability”. Further, in data set [3], the “change of permeability with cyclosporin A” value is “increased around two-fold”; the “change of permeability with ketoconazole vs alone” value was “two-fold higher permeability”; the “effective permeability (Peff)” value is “less than 0.2 × 10^−4 cm/s”; the “change of Peff and Ka values at higher drug concentration (80 μg/mL)” value is given as “significant increase”. In addition, in data set [3], the “change of Peff and Ka values between 20 and 50 μg/mL” value was “slight decline”; the “increase of Peff with indomethacin” value is given as 4.2 fold; the “increase of intestinal transport with verapamil” value is 1.5 fold; the “order of Peff and Ka values in three intestinal segments” value is “duodenum > jejunum > ileum”. The “stability in K-R buffer across pH values” in data set [4] is “more stable at pH 5.0 and pH 6.55 than pH 7.43”. Moreover, in data set [5], the Papp entry is “less than 2 × 10^−6 cm/s”; the “Papp (BA)/Papp (AB) (efflux ratio, ER)” value was 1.0-1.5; the “Papp at high and medium vs lower concentration” value was “significant increase in permeability”; the “Papp over incubation time” value is “upward trend over time”. Moreover, in data set [5], the “change of permeability in the presence of cyclosporin A” value is on record as 10 fold.

(Values after publication PMC6479817, “In Vitro and In Situ Characterization of the Intestinal Absorption of Capilliposide B and Capilliposide C from Lysimachia capillipes Hemsl” (Molecules, 2019).)
